Values joined by “and” are separate entries in the source; they are usually repeats but may differ in a detail not shown here. Equal values may be shown once.

This experiment concerns the target Somatostatin receptor type 2 (Mus musculus, UniProt P30875). Briefly: Inhibition of [125I][Leu8,D-Trp22,[…]]somatostatin-28 binding to somatostatin receptor 2.

Chain of Somatostatin receptor type 2 (P30875 whole entry): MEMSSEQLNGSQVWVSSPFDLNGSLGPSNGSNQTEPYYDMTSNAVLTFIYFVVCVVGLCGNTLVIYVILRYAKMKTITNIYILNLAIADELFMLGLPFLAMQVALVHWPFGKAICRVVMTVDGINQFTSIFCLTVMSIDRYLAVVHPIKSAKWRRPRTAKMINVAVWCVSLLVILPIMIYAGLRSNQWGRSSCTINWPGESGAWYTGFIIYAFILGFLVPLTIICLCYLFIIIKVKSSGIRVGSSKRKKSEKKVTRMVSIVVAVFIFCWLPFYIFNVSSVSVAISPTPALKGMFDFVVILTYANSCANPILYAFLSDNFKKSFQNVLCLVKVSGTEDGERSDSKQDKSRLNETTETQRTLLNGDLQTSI

The IC50 is the point on the concentration scale where inhibition reaches its midpoint. Lower therefore signals inhibition by little substance. Take `C[C@H](O)[C@@H]1NC(=O)[C@H](CCCCN)NC(=O)[C@@H](Cc2c[nH]c3ccccc23)NC(=O)[C@H](Cc2ccc(O)cc2)NC(=O)[C@@H](NC(=O)[C@@H](Cc2ccccc2)NC(=O)CN2CCN(CC(=O)O)CCN(CC(=O)O)CCN(CC(=O)O)CC2)CSSCC(C(=O)N[C@H](CO)[C@H](C)O)NC1=O` (stereo partly specified): the IC50 is 0.46 nM and 2.2 nM.

The values above are taken from BindingDB's records for doi:10.1021/jm0496335 (2005).
